Data: PubChem BioAssay AID330 (DTP/NCI, 2004)
“And” between values parts separate entries of the source, which are not always exact repeats. Equal entries are not always repeated. Inconclusive results and toxic doses are left out. How the source made its calls: active means survival T/C of 150% or more; inactive means T/C below 125% in these data. Peptide text beside a SMILES is read from it. * marks the point of attachment. Cbz = O=C(OCc1ccccc1)*

Test system: P388 leukemia ip, CD2F1 mice, survival T/C
Test: NCI In Vivo Anticancer Drug Screen. Data for tumor model P388 Leukemia (intraperitoneal) in CD2F1 (CDF1) mice
Settings: endpoint: median survival time, higher = longer survival
Outline: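 Mice carrying the transplanted tumor received test compound or vehicle. Survival was recorded in each group, and the value is the treated-group measurement divided by that of the vehicle-treated control group.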

[1] = dose: 12.5 mg/kg/injection, schedule: Q01DX009 (ip), vehicle: saline with Tween-80
[2] = dose: 25.0 mg/kg/injection, schedule: Q01DX009 (ip), vehicle: saline with Tween-80
[3] = dose: 50.0 mg/kg/injection, schedule: Q01DX009 (ip), vehicle: saline with Tween-80
[4] = dose: 100.0 mg/kg/injection, schedule: Q01DX009 (ip), vehicle: saline with Tween-80
[5] = dose: 25.0 mg/kg/injection, schedule: Q01DX009 (ip), vehicle: other
[6] = dose: 50.0 mg/kg/injection, schedule: Q01DX009 (ip), vehicle: other
[7] = dose: 100.0 mg/kg/injection, schedule: Q01DX009 (ip), vehicle: other
[8] = dose: 200.0 mg/kg/injection, schedule: Q01DX009 (ip), vehicle: other
[9] = dose: 50.0 mg/kg/injection, schedule: Q01DX009 (ip), vehicle: saline
[10] = dose: 100.0 mg/kg/injection, schedule: Q01DX009 (ip), vehicle: saline
[11] = dose: 200.0 mg/kg/injection, schedule: Q01DX009 (ip), vehicle: saline
[12] = dose: 60.0 mg/kg/injection, schedule: Q01DX005 (ip), vehicle: saline with Tween-80
[13] = dose: 50.0 mg/kg/injection, schedule: Q01DX005 (ip), vehicle: saline with Tween-80
[14] = dose: 50.0 mg/kg/injection, schedule: Q01DX005 (ip), vehicle: Klucel (hydroxypropylcellulose) (HPC)
[15] = dose: 100.0 mg/kg/injection, schedule: Q01DX005 (ip), vehicle: Klucel (hydroxypropylcellulose) (HPC)
[16] = dose: 200.0 mg/kg/injection, schedule: Q01DX005 (ip), vehicle: Klucel (hydroxypropylcellulose) (HPC)
[17] = dose: 60.0 mg/kg/injection, schedule: Q01DX005 (ip), vehicle: Klucel (hydroxypropylcellulose) (HPC)
[18] = dose: 120.0 mg/kg/injection, schedule: Q01DX005 (ip), vehicle: Klucel (hydroxypropylcellulose) (HPC)
[19] = dose: 240.0 mg/kg/injection, schedule: Q01DX005 (ip), vehicle: Klucel (hydroxypropylcellulose) (HPC)
[20] = dose: 50.0 mg/kg/injection, schedule: Q01DX009 (ip), vehicle: Klucel (hydroxypropylcellulose) (HPC)
[21] = dose: 100.0 mg/kg/injection, schedule: Q01DX009 (ip), vehicle: Klucel (hydroxypropylcellulose) (HPC)
[22] = dose: 200.0 mg/kg/injection, schedule: Q01DX009 (ip), vehicle: Klucel (hydroxypropylcellulose) (HPC)
[23] = dose: 120.0 mg/kg/injection, schedule: Q01DX005 (ip), vehicle: saline with Tween-80
[24] = dose: 240.0 mg/kg/injection, schedule: Q01DX005 (ip), vehicle: saline with Tween-80
[25] = dose: 15.0 mg/kg/injection, schedule: Q01DX005 (ip), vehicle: Klucel (hydroxypropylcellulose) (HPC)
[26] = dose: 30.0 mg/kg/injection, schedule: Q01DX005 (ip), vehicle: Klucel (hydroxypropylcellulose) (HPC)

Measured: T/C

COC(=O)CCCC1=NC2=CC=CC3=NC(C)=NC(=N1)N23
inactive: [1] 123 % of control | [2] 114 % of control | [3] 98 % of control | [4] 104 % of control

CCc1cc(C=C2C(=O)c3ccccc3C2=O)cc(CC)c1O
inactive: dose: 100.0 mg/kg/injection, schedule: Q04DX002 (ip), vehicle: saline 99 % of control | dose: 200.0 mg/kg/injection, schedule: Q04DX002 (ip), vehicle: saline 99 % of control | dose: 400.0 mg/kg/injection, schedule: Q04DX002 (ip), vehicle: saline 99 % of control

O=C(O)CCC(=O)O
inactive: dose: 10.0 mg/kg/injection, schedule: Q01DX009 (ip), vehicle: water 90 % of control | dose: 20.0 mg/kg/injection, schedule: Q01DX009 (ip), vehicle: water 99 % of control and 109 % of control | dose: 40.0 mg/kg/injection, schedule: Q01DX009 (ip), vehicle: water 98 % of control and 94 % of control | dose: 80.0 mg/kg/injection, schedule: Q01DX009 (ip), vehicle: water 96 % of control and 91 % of control | dose: 160.0 mg/kg/injection, schedule: Q01DX009 (ip), vehicle: water 101 % of control and 102 % of control

CC1C(c2ccccc2)=Nn2c(=O)n(-c3ccccc3)c(=O)n21 (stereo not given)
inactive: [5] 90 % of control | [6] 91 % of control | [7] 91 % of control | [8] 89 % of control | dose: 400.0 mg/kg/injection, schedule: Q01DX009 (ip), vehicle: other 86 % of control

Cc1ccc(O)c(C2CC(=O)NC(NC#N)=N2)c1 (stereo not given)
inactive: [9] 103 % of control | [10] 101 % of control | [11] 101 % of control

COc1cc2c(cc1OC)C(=O)c1ncccc1C2=O
inactive: dose: 12.5 mg/kg/injection, schedule: Q01DX009 (ip), vehicle: other 104 % of control | [5] 100 % of control | [6] 99 % of control | [7] 90 % of control | [8] 89 % of control

CCc1cccc(C)c1NC(=O)C(=O)C(C#N)c1ccccc1 (stereo not given)
inactive: dose: 60.0 mg/kg/injection, schedule: Q01DX005 (ip), vehicle: saline 105 % of control | dose: 120.0 mg/kg/injection, schedule: Q01DX005 (ip), vehicle: saline 108 % of control | dose: 240.0 mg/kg/injection, schedule: Q01DX005 (ip), vehicle: saline 108 % of control

O=[N+]([O-])c1cn(CCNc2c3ccccc3nc3ccccc23)cn1
inactive: [12] 112 % of control

Cn1c(Br)c(C=O)c2ccccc21
inactive: dose: 100.0 mg/kg/injection, schedule: Q01DX001 (ip), vehicle: Klucel (hydroxypropylcellulose) (HPC) 100 % of control | dose: 200.0 mg/kg/injection, schedule: Q01DX001 (ip), vehicle: Klucel (hydroxypropylcellulose) (HPC) 102 % of control | dose: 400.0 mg/kg/injection, schedule: Q01DX001 (ip), vehicle: Klucel (hydroxypropylcellulose) (HPC) 105 % of control

C/C(C/C(C)=N/O)=N/O
inactive: [9] 99 % of control | [10] 97 % of control | [11] 91 % of control

c1ccc2c(C3CCCN4CCCCC34)c[nH]c2c1 (stereo not given)
inactive: dose: 12.5 mg/kg/injection, schedule: Q04DX002 (ip), vehicle: saline with Tween-80 105 % of control | dose: 25.0 mg/kg/injection, schedule: Q04DX002 (ip), vehicle: saline with Tween-80 102 % of control | dose: 50.0 mg/kg/injection, schedule: Q04DX002 (ip), vehicle: saline with Tween-80 100 % of control

Clc1ccc(-c2nnc(Nc3ccnc4cc(Cl)ccc34)s2)cc1
inactive: dose: 12.5 mg/kg/injection, schedule: Q01DX005 (ip), vehicle: saline with Tween-80 96 % of control | dose: 25.0 mg/kg/injection, schedule: Q01DX005 (ip), vehicle: saline with Tween-80 96 % of control | [13] 99 % of control and 102 % of control

Cc1cnc(Sc2ncccn2)c(C(=O)O)c1[N+](=O)[O-]
inactive: [14] 101 % of control | [15] 99 % of control | [16] 100 % of control

CN1C(=O)N(C)C2CC(=O)c3c(ccc4c3ncn4C)N2C1=O (stereo not given)
inactive: [17] 104 % of control | [18] 108 % of control | [19] 114 % of control

CC1(C)c2ccccc2-c2nc3ccccc3nc2C1O (stereo not given)
inactive: dose: 100.0 mg/kg/injection, schedule: Q04DX003 (ip), vehicle: Klucel (hydroxypropylcellulose) (HPC) 110 % of control | dose: 200.0 mg/kg/injection, schedule: Q04DX003 (ip), vehicle: Klucel (hydroxypropylcellulose) (HPC) 99 % of control | dose: 400.0 mg/kg/injection, schedule: Q04DX003 (ip), vehicle: Klucel (hydroxypropylcellulose) (HPC) 112 % of control

CN(C)CC(CN(C)C)C(=O)c1ccc(O)cc1
inactive: dose: 6.25 mg/kg/injection, schedule: Q01DX005 (ip), vehicle: saline 118 % of control | dose: 12.5 mg/kg/injection, schedule: Q01DX005 (ip), vehicle: saline 105 % of control | dose: 25.0 mg/kg/injection, schedule: Q01DX005 (ip), vehicle: saline 110 % of control

Cc1cc(N=Nc2ccc(O)cc2C(=O)O)c([N+](=O)[O-])cc1C
inactive: [20] 101 % of control | [21] 111 % of control | [22] 104 % of control

O=C(c1ccccc1[N+](=O)[O-])C1OC1c1ccccc1 (stereo not given)
inactive: [14] 102 % of control | [15] 99 % of control | [16] 96 % of control

O=C(NN=c1c(=O)c2ccccc2c1=O)c1ccncc1
inactive: [12] 112 % of control | [23] 119 % of control | [24] 119 % of control

CC(C)(C)N1COc2cc3c(cc2C1)OCN(C(C)(C)C)C3
inactive: [1] 110 % of control | [2] 99 % of control | [3] 108 % of control | [4] 119 % of control

CN(C)CCCSc1n[nH]c(=O)[nH]c1=O
inactive: dose: 25.0 mg/kg/injection, schedule: Q01DX005 (ip), vehicle: distilled water + alcohol 111 % of control | dose: 50.0 mg/kg/injection, schedule: Q01DX005 (ip), vehicle: distilled water + alcohol 104 % of control | dose: 100.0 mg/kg/injection, schedule: Q01DX005 (ip), vehicle: distilled water + alcohol 95 % of control | dose: 200.0 mg/kg/injection, schedule: Q01DX005 (ip), vehicle: distilled water + alcohol 92 % of control

CCn1c(=O)c2[nH]c(Br)nc2n(CCOC)c1=O
inactive: [20] 90 % of control | [21] 93 % of control | [22] 104 % of control

CC(C)(C)N1COC2CCCCC21 (stereo not given)
inactive: [25] 106 % of control | [26] 102 % of control | [17] 106 % of control and 117 % of control | [19] 106 % of control

COc1ccc(C(=O)C(=O)c2ccccc2)cc1
inactive: [17] 105 % of control | [18] 100 % of control | [19] 98 % of control

CCOC(=O)CCC(NC(=O)C(CCC(=O)OCC)NC(=O)OCc1ccccc1)C(=O)O (stereo not given) (tested in a mixture with another compound) (Cbz-Glu(OEt)-Glu(OEt)-OH; configuration not given here)
inactive: [14] 100 % of control | [15] 100 % of control | [16] 100 % of control

COc1ccc(-c2coc3cc(OC4OC(COC5OC(CO)C(O)C(O)C5O)C(O)C(O)C4O)cc(O)c3c2=O)cc1 (stereo not given)
inactive: [2] 101 % of control | [3] 98 % of control | [4] 93 % of control

CC1(C)Cc2ccccc2/C1=C/c1ccccn1
inactive: [12] 98 % of control | [23] 100 % of control | [24] 108 % of control

Oc1ccc2ccc3cccc4ccc1c2c34
inactive: [13] 100 % of control | dose: 100.0 mg/kg/injection, schedule: Q01DX005 (ip), vehicle: saline with Tween-80 100 % of control | dose: 200.0 mg/kg/injection, schedule: Q01DX005 (ip), vehicle: saline with Tween-80 100 % of control

Cn1cc(C2=C(Cl)C(=O)N(c3cc(Cl)cc(Cl)c3)C2=O)c(=O)n(C)c1=O
inactive: [25] 99 % of control | [26] 99 % of control | [17] 111 % of control
